Experimental data: patent US20210015811A1, “METHODS OF TREATING A PULMONARY BACTERIAL INFECTION USING FLUOROQUINOLONES” (HORIZON ORPHAN, LLC, priority 2009, published 2021)
In brackets after ≈: the same amount, converted by molar mass.

Experiments:
[1] = test system: 114 CF P. aeruginosa isolates; assay: Aerobic and anaerobic MIC susceptibility testing (broth microdilution, CLSI); format: cell-based, Pseudomonas aeruginosa; conditions: for aerobic versus anaerobic MIC distribution (potency under anaerobic conditions): all 114 P. aeruginosa isolates, FIGS. 2A-D; for increase of geometric mean of the MIC by anaerobic incubation / increase of MIC50 under anaerobic conditions: 114 CF isolates; for increase of MIC50 under anaerobic conditions: CAMHB + 1% KNO3 for anaerobic
From the text: One hundred and fourteen CF P. aeruginosa isolates were obtained for susceptibility testing from the CF Referral Center for Susceptibility & Synergy Studies at Columbia University (New York, N.Y.) and also from two CF Therapeutics Development Network (TDN) laboratories (Seattle Children's Hospital, Seattle, Wash. and University of North Carolina at Chapel Hill, Chapel Hill, N.C.). About sixty percent were recent isolates (2004-2007) with the remaining forty percent isolated between 1980 and 2004.
The antibiotics used in these studies included tobramycin, levofloxacin, amikacin, and aztreonam which are in use or in development as aerosolized therapies for CF. For aerobic susceptibility tests, levofloxacin hydrochloride, tobramycin sulfate, and amikacin disulfate were purchased from LKT Laboratories (St. Paul, Minn.) and aztreonam base was purchased from MP Biomedicals (Solon, Ohio). All antibiotics used for anaerobic susceptibility tests were purchased from the United States Pharmacopeia (Rockville, Md.).
(§1) Antibiotic MIC endpoints were obtained using the broth microdilution method according to the CLSI reference method. See Clinical and Laboratory Standards Institute. Methods for Dilution Antimicrobial Susceptibility Tests for Bacteria That Grow Aerobically—Seventh Edition: Approved Standard M7-A7. CLSI, Wayne, Pa., USA, 2006. Antibiotics were serially diluted to the following concentrations for aerobic testing: levofloxacin and tobramycin from 0.03-32 mg/L and amikacin and aztreonam from 0.125-128 mg/L. Anaerobic susceptibility testing required the addition of 1% potassium nitrate (KNO3) to cation-adjusted Mueller-Hinton broth (CAMHB) to allow for P. aeruginosa anaerobic respiration. For anaerobic testing, frozen MIC plates were thawed and stored in the anaerobic chamber overnight to ensure elimination of all oxygen prior to inoculation with test strains. The dilution range for all antibiotics was 0.125-128 mg/L for the anaerobic susceptibility tests. Extended incubation of up to 48 hours under anaerobic conditions may be required and was needed for 54% of the isolates.

[2] = test system: P. aeruginosa strain PAM1573 (na1B gyrA (Thr83Ile)); assay: Levofloxacin MIC against isogenic strain PAM1573; format: cell-based; conditions: Pseudomonas aeruginosa
From the text: (§2) P. aeruginosa strains PAM1020 (wild-type), PAM1032 (na1B), PAM1481 (na1B gyrA (Asp87Tyr)), and PAM1573 (na1B gyrA (Thr83Ile)) represent relevant efflux-mediated and target mutation resistance mechanisms and were used in the levofloxacin time-kill assays.
as §1, with “The dilution range for all antibiotics was 0.125-128 mg/L for the anaerobic susceptibility tests. Extended incubation of up to 48 hours under anaerobic conditions may be required and was needed for 54% of the isolates.” left out
(§3) Aerobic and hypoxic Mueller-Hinton broth (MHB) cultures were diluted to an initial inoculum of 1×10^7-1×10^8 CFU/ml. […] Agar plates were incubated up to 48 hours at 37° C. and bactericidal activity was assessed. […]

[3] = test system: P. aeruginosa strain PAM1481 (na1B gyrA (Asp87Tyr)); assay: Levofloxacin MIC against isogenic strain PAM1481; format: cell-based; conditions: Pseudomonas aeruginosa
From the text: as §2
as §1, with “The dilution range for all antibiotics was 0.125-128 mg/L for the anaerobic susceptibility tests. Extended incubation of up to 48 hours under anaerobic conditions may be required and was needed for 54% of the isolates.” left out
as §3

[4] = test system: P. aeruginosa strain PAM1020 (wild-type); assay: Levofloxacin MIC against isogenic strain PAM1020; format: cell-based; conditions: Pseudomonas aeruginosa
From the text: as §2
as §1, with “The dilution range for all antibiotics was 0.125-128 mg/L for the anaerobic susceptibility tests. Extended incubation of up to 48 hours under anaerobic conditions may be required and was needed for 54% of the isolates.” left out
as §3

[5] = test system: P. aeruginosa strain PAM1032 (na1B); assay: Levofloxacin MIC against isogenic strain PAM1032; format: cell-based; conditions: Pseudomonas aeruginosa
From the text: as §2
as §1, with “The dilution range for all antibiotics was 0.125-128 mg/L for the anaerobic susceptibility tests. Extended incubation of up to 48 hours under anaerobic conditions may be required and was needed for 54% of the isolates.” left out
as §3

[6] = anaerobic vs aerobic incubation

Row | aerobic versus anaerobic MIC distribution (potency under anaerobic conditions) [1] | increase of geometric mean of the MIC by anaerobic incubation [1, 6] | SMILES | increase of MIC50 under anaerobic conditions [1, 6] [fold] | MIC [2] [µg/mL] | isolates with MIC increase >4-fold under anaerobic conditions ([1]; anaerobic vs aerobic incubation, share of 114 CF isolates) [%] | MIC [3] [µg/mL] | MIC [4] [µg/mL] | MIC [5] [µg/mL]
1 | reduced potency | ~4 fold | NCC[C@H](O)C(=O)N[C@@H]1C[C@H](N)[C@@H](O[C@H]2O[C@H](CN)[C@@H](O)[C@H](O)[C@H]2O)[C@H](O)[C@H]1O[C@H]1O[C@H](CO)[C@@H](O)[C@H](N)[C@H]1O [amikacin] |  |  |  |  |  | 
2 |  |  | C[C@H]1COc2c(N3CCN(C)CC3)c(F)cc3c(=O)c(C(=O)O)cn1c23 [levofloxacin] | 2 | 8 (≈ 22.1 µM) | 4 | 4 (≈ 11.1 µM) | 0.125 (≈ 0.346 µM) | 1 (≈ 2.77 µM)
3 | reduced potency | approximately 7 fold | NC[C@H]1O[C@H](O[C@H]2[C@H](O)[C@@H](O[C@H]3O[C@H](CO)[C@@H](O)[C@H](N)[C@H]3O)[C@H](N)C[C@@H]2N)[C@H](N)C[C@@H]1O [tobramycin] | 4 |  |  |  |  | 

Row | SMILES | aerobic versus anaerobic MIC distribution (potency under anaerobic conditions) [1] | increase of geometric mean of the MIC by anaerobic incubation [1, 6] | increase of MIC50 under anaerobic conditions [1, 6] [fold] | MIC [2] [µg/mL] | isolates with MIC increase >4-fold under anaerobic conditions ([1]; anaerobic vs aerobic incubation, share of 114 CF isolates) [%] | MIC [3] [µg/mL] | MIC [4] [µg/mL] | MIC [5] [µg/mL]
4 | C[C@H]1[C@H](NC(=O)/C(=N\OC(C)(C)C(=O)O)c2csc(N)n2)C(=O)N1S(=O)(=O)O [aztreonam] | reduced potency | ~6 fold | 16 |  |  |  |  | 
